According to the C3SDB collision cross section collection:

Conditions: [M+H-H2O]+; instrument: TW; calibrated with polyalanine and drug standards

Row | collision cross section (N2) [Å²] | Compound
1 | 172 | COc1ccc2c(c1)OC[C@@H](Cc1ccc(OC)c(OC)c1)[C@H]2O [TETRAHYDROSAPPANONE A TRIMETHYL ETHER]

Same assay, conditions: [M+H]+; instrument: TW; calibrated with polyalanine and drug standards

Row | Compound | collision cross section (N2) [Å²]
2 | COP(=O)(OC)OC=C(Cl)Cl [DICHLORVOS] | 138.7
3 | C#C[C@]1(OC(C)=O)CC[C@H]2[C@@H]3CCC4=C/C(=N/O)CC[C@@H]4[C@H]3CC[C@@]21CC [NORGESTIMATE] | 197.6
4 | CN1CCc2cc3c(cc2[C@H]1[C@@H]1OC(=O)c2c1ccc1c2OCO1)OCO3 [BICUCULLINE (+)] | 180
5 | O=C(CCCl)NCc1ccccc1 [BECLAMIDE] | 142.3
6 | C[C@]12CCC(=O)C=C1CC[C@@H]1[C@@H]2[C@@H](O)C[C@@]2(C)[C@H]1CC[C@]2(O)C(=O)CO [HYDROCORTISONE] | 185.1
7 | CNCCC=C1c2ccccc2CCc2ccccc21 [NORTRIPTYLINE] | 163.1
8 | CC(=O)NCCc1ccc(O)c(-c2c(O)c(O)c3c(c2O)C(=O)c2c(cc(O)c(C(=O)O)c2C(=O)O)C3=O)c1 [LACCAIC ACID A] | 218.5
9 | Nc1ccc(C(=O)Oc2ccccc2)c(O)c1 [PHENYL AMINOSALICYLATE] | 163.4
10 | O=c1cc(-c2ccccc2)oc2cc(O)c(O)c(O)c12 [BAICALEIN] | 153.8
11 | COc1cc(OC)c2ccc(=O)oc2c1 [CITROPTEN] | 138.3
12 | Cc1ncc(CSSCc2cnc(C)c(O)c2CO)c(CO)c1O [PYRITINOL] | 173.4
13 | CN(C(=O)C(Cl)Cl)c1ccc(OC(=O)c2ccco2)cc1 [DILOXANIDE FUROATE] | 171.7
14 | Oc1ccc(Cl)cc1 [PARACHLOROPHENOL] | 108.8
15 | CN1C(C(=O)Nc2ccccn2)=C(O)c2sccc2S1(=O)=O [TENOXICAM] | 169.8
16 | CCCCC1C(=O)N(c2ccccc2)N(c2ccccc2)C1=O [PHENYLBUTAZONE] | 172.4
17 | CCN1C[C@]2(OC(=O)c3ccccc3NC(C)=O)CC[C@H](OC)C34C1C(C[C@@H]32)[C@@]1(O)C[C@H](OC)[C@H]2C[C@@H]4[C@]1(O)[C@H]2OC [LAPPACONITINE] | 232.5
18 | COc1ccc(/C=C/c2cc(O)cc(O)c2)cc1 [RESVERATROL 4'-METHYL ETHER] | 157.3
19 | CC1(C)C2CC(=O)[C@]3(C)C(CC[C@@]4(C)[C@H](c5ccoc5)OC(=O)C5OC543)[C@@]2(C)[C@@H](O)C[C@H]1O (some centres not stated) [1,3-DIDEACETYL-7-DEACETOXY-7-OXOKHIVORIN] | 200.2
20 | CCOC(=O)c1cncn1C(C)c1ccccc1 (configuration not stated) [ETOMIDATE] | 155.9
21 | O=C(CCCN1CCN(c2ccccn2)CC1)c1ccc(F)cc1 [AZAPERONE] | 180
22 | COC(=O)Nc1nc2ccc(C(=O)c3ccccc3)cc2[nH]1 [MEBENDAZOLE] | 171.2
23 | CC(=O)OCC(=O)[C@@]1(O)CC[C@H]2[C@@H]3CCC4=CC(=O)CC[C@]4(C)[C@H]3C(=O)C[C@@]21C [CORTISONE ACETATE] | 196.5
24 | CCC(C)C(=O)O[C@@H]1C[C@@]2(C)[C@H](c3ccoc3)OC(=O)CC23OC2(C)O[C@]14[C@]1(C)[C@@H](CC(=O)OC)C5(C)CC1(O)[C@](O)(C5OC(=O)C1(C)OC1C)[C@@H](OC(C)=O)[C@]34O2 (some centres not stated) [UTILIN] | 252.5
25 | CC1(C)CC23C(=O)CCC(O)C2(C)CCC13 (configuration not stated) [3-NOR-3-OXOPANASINSAN-6-OL] | 146.1
26 | COc1ccc2oc(-c3ccccc3)c(OC)c(=O)c2c1 [3,6-DIMETHOXYFLAVONE] | 159.9
27 | COc1ccc2c(c1)[nH]c1c(C)nccc12 [HARMINE] | 144.5
28 | CCOc1ccc(NC(C)=O)cc1 [PHENACETIN] | 140.5
29 | CC(C)=CCC[C@]1(C)C=Cc2c(O)c3c(c(CC=C(C)C)c2O1)O[C@]12C(=C[C@@H]4C[C@H]1C(C)(C)O[C@@]2(C/C=C(/C)C(=O)O)C4=O)C3=O [GAMBOGIC ACID] | 239
30 | COc1cc(O)c2c(=O)c(OC)c(-c3ccc(OC)c(OC)c3)oc2c1 [RETUSIN] | 180.8

More lines, now with the values ahead:

Row | collision cross section (N2) [Å²] | Compound
31 | 141.3 | CCCc1cc(C(N)=S)ccn1 [PROTIONAMIDE]
32 | 139 | CNC[C@H](O)[C@@H](O)[C@H](O)[C@H](O)CO [MEGLUMINE]
33 | 157.5 | CC(C(=O)O)c1cccc(C(=O)c2ccccc2)c1 (configuration not stated) [KETOPROFEN]
34 | 173.3 | Cc1ccc(S(=O)(=O)NC(=O)NN2CCCCCC2)cc1 [TOLAZAMIDE]
35 | 124.7 | COc1cccc(O)c1O [3-METHOXYCATECHOL]
36 | 162.2 | COc1ccc(/C=C/C(=O)c2ccc(O)cc2O)cc1 [2',4'-DIHYDROXY-4-METHOXYCHALCONE]
37 | 213.3 | COC(=O)C[C@H]1C(C)(C)[C@H](OC(C)=O)[C@@H]2CC3=C4CC(=O)O[C@@H](c5ccoc5)[C@]4(C)CC[C@@H]3C1(C)C2=O [FISSINOLIDE]
38 | 161.1 | CCn1cc(C(=O)O)c(=O)c2cnc(N3CCCC3)nc21 [PIROMIDIC ACID]
39 | 203.5 | O=C1CCc2ccc(OCCCCN3CCN(c4cccc(Cl)c4Cl)CC3)cc2N1 [ARIPIPRAZOLE]
40 | 157.1 | CN1CCOC(c2ccccc2)c2ccccc2C1 (configuration not stated) [NEFOPAM]
41 | 122.2 | O=c1ccc2ccccc2o1 [COUMARIN]
42 | 152.3 | CC(=O)N[C@@H](Cc1c[nH]c2ccccc12)C(=O)O [ACETYLTRYPTOPHAN]
43 | 189.9 | COc1ccc(-c2cc(C(F)F)nn2-c2ccc(S(N)(=O)=O)cc2)cc1F [DERACOXIB]
44 | 120.4 | S=c1ccss1 [3H-1,2-DITHIOLE-3-THIONE]
45 | 153.8 | COc1ccc(C(=O)/C=C/c2ccccc2)cc1 [4'-METHOXYCHALCONE]
46 | 153.8 | O=C(Oc1cccc2cccnc12)c1ccccc1 [BENZOXIQUINE]
47 | 238 | CO/N=C(\C(=O)N[C@@H]1C(=O)N2C(C(=O)OCOC(=O)C(C)(C)C)=C(/C=C\c3scnc3C)CS[C@H]12)c1csc(N)n1 [CEFDITORIN PIVOXIL]
48 | 186.4 | CC1CC2C3CCC4=CC(=O)C=CC4(C)C3(F)C(O)CC2(C)C1C(=O)CO (configuration not stated) [DESOXYMETASONE]

Same assay, conditions: [M+Na]+; instrument: TW; calibrated with polyalanine and drug standards

Row | collision cross section (N2) [Å²] | Compound
49 | 211 | CCCCCCCCCCCCCCC(C(=O)O)C(O)(CC(=O)OC)C(=O)O (configuration not stated) [CAPERATIC ACID]
50 | 186.2 | CC1CC(OC(=O)C(O)c2ccccc2)CC(C)(C)C1 (configuration not stated) [CYCLANDELATE]
51 | 202.8 | CCCCCCCCCCCCCCCCCCOCC(O)CO (configuration not stated) [BATYL ALCOHOL]
52 | 183.3 | CC(C)CC(NC(=O)OCC1c2ccccc2-c2ccccc21)C(=O)O (stereo in doubt) [N- (9-FLUORENYLMETHOXYCARBONYL)-L-LEUCINE]
